Data as given in US20030069232A1, “Topical treatment of ocular hypertension, glaucoma, ischemic retinopathy and age-related macular degeneration with ophthalmic formulation of dopamine antagonists” (priority 1999, published 2003).

System: New Zealand white rabbit eyes
Assay: Eye irritation in rabbit eyes (Draize Test)
Type: in vivo
Conditions: 50 μl of 1% droperidol; slit lamp biomicroscope
Protocol: 50 μl of 1% droperidol was used to test for eye irritation in New Zealand white rabbit eyes using the standard procedure of the Draize Test. […] Eyedrops were instilled in the eyes, and the responses of the eyes were examined with a slit lamp biomicroscope.

With `O=C(CCCN1CC=C(n2c(=O)[nH]c3ccccc32)CC1)c1ccc(F)cc1` [droperidol, Droperidol] the Eye irritation was “either absent or insignificant”.
